Where a name gives a salt, the structure may show the parent alone.
What was measured:
NHE3 [1] = molecular target: T1, NHE3 (Homo sapiens, UniProt P48764); assay: Cell-based assay of NHE-3 activity (pre-incubation inhibition), human; conditions: human Preincubation; for pIC50 / IC50: 0-30 μM test compound
T1 construct: expressed in transfected cells
T1 sequence (P48764 26-834): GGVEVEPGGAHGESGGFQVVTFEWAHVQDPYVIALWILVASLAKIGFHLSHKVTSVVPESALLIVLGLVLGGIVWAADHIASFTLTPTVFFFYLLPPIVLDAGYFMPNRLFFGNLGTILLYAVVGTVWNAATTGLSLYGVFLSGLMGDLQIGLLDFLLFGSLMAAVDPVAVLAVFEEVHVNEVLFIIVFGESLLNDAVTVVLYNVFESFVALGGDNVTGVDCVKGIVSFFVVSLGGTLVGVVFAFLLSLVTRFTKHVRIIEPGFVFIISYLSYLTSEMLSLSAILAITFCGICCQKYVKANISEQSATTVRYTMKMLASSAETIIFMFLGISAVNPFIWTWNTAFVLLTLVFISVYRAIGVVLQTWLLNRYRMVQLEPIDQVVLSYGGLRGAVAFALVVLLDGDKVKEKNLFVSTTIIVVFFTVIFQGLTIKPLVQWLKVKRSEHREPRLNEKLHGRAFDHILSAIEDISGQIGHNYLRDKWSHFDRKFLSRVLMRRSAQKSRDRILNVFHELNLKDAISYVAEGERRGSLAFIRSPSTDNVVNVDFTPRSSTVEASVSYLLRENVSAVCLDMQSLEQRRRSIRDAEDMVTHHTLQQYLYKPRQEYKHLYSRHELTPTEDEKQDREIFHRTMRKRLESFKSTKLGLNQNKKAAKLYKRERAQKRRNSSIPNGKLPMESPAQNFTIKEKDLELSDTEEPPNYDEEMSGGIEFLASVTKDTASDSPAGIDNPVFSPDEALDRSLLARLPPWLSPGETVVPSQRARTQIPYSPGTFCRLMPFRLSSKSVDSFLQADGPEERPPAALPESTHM
T1 sequence (Q99653 2-195 partner limits assumed): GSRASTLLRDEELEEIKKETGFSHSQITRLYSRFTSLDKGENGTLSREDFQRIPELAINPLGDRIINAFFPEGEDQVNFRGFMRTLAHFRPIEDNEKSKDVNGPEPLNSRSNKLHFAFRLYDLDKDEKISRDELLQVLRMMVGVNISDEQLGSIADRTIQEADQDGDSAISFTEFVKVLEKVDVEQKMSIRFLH
How it was run: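 Activity read as initial rate of BCECF fluorescence ratio change per minute (ex 439/505, em 538 nm) following NH4Cl prepulse acid loading. Compound (0–30 μM) present during 10 min Na+-free acidification at room temperature; cells were PS120 fibroblasts stably co-expressing human NHE3 and NHERF2.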

NHE3 [2] = molecular target: T1, NHE3; assay: Cell-based assay of NHE-3 activity (persistent inhibition), human; conditions: human Persistence, 60 min incubation then washout
How it was run: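 Persistent inhibition: compound (0-30 μM, 60 min, RT, NaCl-HEPES pH 7.4) removed before assay. Human NHE3/NHERF2 PS120 cells were then BCECF-loaded during NH4Cl pulse (30 min, 37 °C), acidified in Na+-free buffer, and Na+ added 10 min after washout; antiport measured as initial fluorescence-ratio change per minute.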

Compound	% inhibition (NHE3 [1])	pIC50 (NHE3 [1])	% inhibition (NHE3 [2])	pIC50 (NHE3 [2])	IC50 (NHE3 [2]) [nM]	IC50 (NHE3 [1]) [nM]
O=C(NCCCCNC(=O)NCCOCCOCCNS(=O)(=O)c1ccc(O[C@H]2c3cc(Cl)cc(Cl)c3C[C@@H]2N2C3CCCC2CCC3)cc1)NCCOCCOCCNS(=O)(=O)c1ccc(O[C@H]2c3cc(Cl)cc(Cl)c3C[C@@H]2N2C3CCCC2CCC3)cc1 [Example 71, 1-[2-(2-[2-[(4-[[(1S,2S)-2-[9-Azabicyclo[3.3.1]nonan-9-yl]-4,6-dichloro-2,3-dihydro-1H-inden-1-yl]oxy]benzene)sulfonamido]ethoxy]ethoxy)ethyl]-3-[4-([[2-(2-[2-[(4-[[(1S,2S)-2-[9-azabicyclo[3.3.1]nonan-9-yl]-4,6-dichloro-2,3-dihydro-1H-inden-1-yl]oxy]benzene)sulfonamido]ethoxy]ethoxy)ethyl]carbamoyl]amino)butyl]urea]	B (40-70%)	A (NHE3 pIC50 < 6)	B (40-70%)	A (NHE3 pIC50 < 6)	–	–
Cc1cc(S(=O)(=O)NCCOCCOCCNC(=O)NCCCCNC(=O)NCCOCCOCCNS(=O)(=O)c2ccc(O[C@H]3c4cc(Cl)cc(Cl)c4C[C@@H]3N3CCN(C)CC3)c(C)c2)ccc1O[C@H]1c2cc(Cl)cc(Cl)c2C[C@@H]1N1CCN(C)CC1 [Example 73]	C (>70%)	–	B (40-70%)	A (NHE3 pIC50 < 6)	–	100 to 1000
CN(C)C(=O)N1CCN([C@H]2Cc3c(Cl)cc(Cl)cc3[C@@H]2Oc2ccc(S(=O)(=O)NCCOCCOCCNC(=O)NCCCCNC(=O)NCCOCCOCCNS(=O)(=O)c3ccc(O[C@H]4c5cc(Cl)cc(Cl)c5C[C@@H]4N4CCN(C(=O)N(C)C)CC4)cc3)cc2)CC1 [Example 76, 4-[(1S,2S)-4,6-dichloro-1-[4-[(2-[2-[2-([[4-([[2-(2-[2-[4-(4-[[(1S,2S)-4,6-dichloro-2-[4-(dimethylcarbamoyl)piperazin-1-yl]-2,3-dihydro-1H-inden-1-yl]oxy]benzene)sulfonamido]ethoxy]ethoxy)ethyl]carbamoyl]amino)butyl]carbamoyl]amino)ethoxy]ethoxy]ethyl)sulfamoyl]phenoxy]-2,3-dihydro-1H-inden-2-yl]-N,N-dimethylpiperazine-1-carboxamide]	C (>70%)	–	A (NHE3 < 40%)	–	> 1000	< 100
Cc1cc(S(=O)(=O)NCCOCCOCCNC(=O)NCCCCNC(=O)NCCOCCOCCNS(=O)(=O)c2cc(C)c(O[C@H]3c4cc(Cl)cc(Cl)c4C[C@@H]3N3CCC[C@@H](N)C3)c(C)c2)cc(C)c1O[C@H]1c2cc(Cl)cc(Cl)c2C[C@@H]1N1CCC[C@@H](N)C1 [Example 79, 3-[2-(2-[2-[(4-[[(1S,2S)-2-[(3R)-3-Aminopiperidin-1-yl]-4,6-dichloro-2,3-dihydro-1H-inden-1-yl]oxy]-3,5-dimethylbenzene)sulfonamido]ethoxy]ethoxy)ethyl]-1-[4-([[2-(2-[2-[(4-[[(1S,2S)-2-[(3R)-3-aminopiperidin-1-yl]-4,6-dichloro-2,3-dihydro-1H-inden-1-yl]oxy]3,5-dimethylbenzene)sulfonamido]ethoxy]ethoxy)ethyl]carbamoyl]amino)butyl]urea; hydrochloride]	C (>70%)	–	C (>70%)	–	100 to 1000	–

Now from value to compound:

% inhibition (NHE3 [1])	pIC50 (NHE3 [1])	% inhibition (NHE3 [2])	pIC50 (NHE3 [2])	IC50 (NHE3 [2]) [nM]	IC50 (NHE3 [1]) [nM]	Compound
C (>70%)	–	C (>70%)	–	100 to 1000	–	CN1CCN([C@H]2Cc3c(Cl)cc(Cl)cc3[C@@H]2Oc2ccc(S(=O)(=O)NCCOCCOCCNC(=O)NCCCCNC(=O)NCCOCCOCCNS(=O)(=O)c3ccc(O[C@H]4c5cc(Cl)cc(Cl)c5C[C@@H]4N4CCN(C)CC4)cc3)cc2)CC1 [Example 72, 3-[2-(2-[2-[(4-[[(1S,2S)-4,6-Dichloro-2-(4-methylpiperazin-1-yl)-2,3-dihydro-1H-inden-1-yl]oxy]benzene)sulfonamido]ethoxy]ethoxy)ethyl]-1-[4-([[2-(2-[2-[(4-[[(1S,2S)-4,6-dichloro-2-(4-methylpiperazin-1-yl)-2,3-dihydro-1H-inden-1-yl]oxy]benzene)sulfonamido]ethoxy]ethoxy)ethyl]carbamoyl]amino)butyl]urea a; bis(trifluoroacetic acid)]
C (>70%)	A (NHE3 pIC50 < 6)	A (NHE3 < 40%)	A (NHE3 pIC50 < 6)	–	–	CC(=O)N1CCN([C@H]2Cc3c(Cl)cc(Cl)cc3[C@@H]2Oc2ccc(S(=O)(=O)NCCOCCOCCNC(=O)NCCCCNC(=O)NCCOCCOCCNS(=O)(=O)c3ccc(O[C@H]4c5cc(Cl)cc(Cl)c5C[C@@H]4N4CCN(C(C)=O)CC4)cc3)cc2)CC1 [Example 74, 3-[2-(2-[2-[(4-[[(1S,2S)-2-(4-Acetylpiperazin-1-yl)-4,6-dichloro-2,3-dihydro-1H-inden-1-yl]oxy]benzene)sulfonamido]ethoxy]ethoxy)ethyl]-1-[4-([[2-(2-[2-[(4-[[(1S,2S)-2-(4-acetylpiperazin-1-yl)-4,6-dichloro-2,3-dihydro-1H-inden-1-yl]oxy]benzene)sulfonamido]ethoxy]ethoxy)ethyl]carbamoyl]amino)butyl]urea]
B (40-70%)	–	A (NHE3 < 40%)	–	–	100 to 1000	CC(=O)N1CCN([C@H]2Cc3c(Cl)cc(Cl)cc3[C@@H]2Oc2ccc(S(=O)(=O)NCCOCCOCCNC(=O)NCCCCNC(=O)NCCOCCOCCNS(=O)(=O)c3ccc(O[C@H]4c5cc(Cl)cc(Cl)c5C[C@@H]4N4CCN(C(C)=O)CC4)c(C)c3)cc2C)CC1 [Example 75, 3-[2-(2-[2-[(4-[[(1S,2S)-2-(4-Acetylpiperazin-1-yl)-4,6-dichloro-2,3-dihydro-1H-inden-1-yl]oxy]-3-methylbenzene)sulfonamido]ethoxy]ethoxy)ethyl]-1-[4-([[2-(2-[2-[(4-[[(1S,2S)-2-(4-acetylpiperazin-1-yl)-4,6-dichloro-2,3-dihydro-1H-inden-1-yl]oxy]-3-methylbenzene)sulfonamido]ethoxy]ethoxy)ethyl]carbamoyl]amino)butyl]urea; bis(trifluoroacetic acid)]
C (>70%)	A (NHE3 pIC50 < 6)	A (NHE3 < 40%)	A (NHE3 pIC50 < 6)	–	–	Cc1cc(S(=O)(=O)NCCOCCOCCNC(=O)NCCCCNC(=O)NCCOCCOCCNS(=O)(=O)c2ccc(O[C@H]3c4cc(Cl)cc(Cl)c4C[C@@H]3N3CCN(C(=O)N(C)C)CC3)c(C)c2)ccc1O[C@H]1c2cc(Cl)cc(Cl)c2C[C@@H]1N1CCN(C(=O)N(C)C)CC1 [Example 77, 4-[(1S,2S)-4,6-dichloro-1-[4-[(2-[2-[2-([[4-([[2-(2-[2-[(4-[[(1S,2S)-4,6-dichloro-2-[4-(dimethylcarbamoyl)piperazin-1-yl]-2,3-dihydro-1H-inden-1-yl]oxy]-3-methylbenzene)sulfonamido]ethoxy]ethoxy)ethyl]carbamoyl]amino)butyl]carbamoyl]amino)ethoxy]ethoxy]ethyl)sulfamoyl]-2-methylphenoxy]-2,3-dihydro-1H-inden-2-yl]-N,N-dimethylpiperazine-1-carboxamide; bis(trifluoroacetic acid)]
